US20040167330A1, “Novel chelating agents and conjugates thereof, their synthesis and use as diagnois and therapeutic agents” (priority 2004, published 2004)

Tests used:
Type in all cases: physicochemical
[1] = Formation of ^90Y-yttrium complex, radiochemical yield by TLC/HPLC; conditions: reaction time 0 min; 25° C.; [Y] = 1,2 · 10^−3 mol/l; ratio of ligand: Y = 1:1; pH = 5.5
[2] = as above; conditions: for radiochemical yield: 25° C.
Procedure: Purified DO3A-P^BnNH2 was dissolved in demineralised water at a concentration of 9×10^−5 mol/l. 0.1 ml of this solution were transferred into a small reaction vial (PE). 0.1 ml ^90Y-yttrium chloride (YCl3) in 0.1 M HCl and 0.1 ml ammonium acetate buffer, pH 5.7, were added. The reaction solutions were mixed well. pH values were measured continuously while preparing the solution. 24 identical solutions were prepared accordingly and stored at 25° C. and 37° C. respectively.
Samples were taken after 15 min, 30 min, 45 min, 60 min, 90 min and 120 min and analyzed by thin layer chromatography using silica gel (POLYGRAM SIL G/UV254) or, preferably, paper (Whatman No. 1) as solid phase. TLC was run using either solvent I: 0.1 N ammonium acetate solution or solvent II: 3% sodium chloride solution as developing solution. In parallel, samples (20 μl) were analyzed by gel filtration using HPLC. The HPLC-system comprised a gamma detector (Berthold LB 506) and a UV/VIS spectrometer (Waters 486) installed in two flow through cells, respectively.
Temperature- and time-dependent studies have shown a very short reaction time for the complex formation of a ^90Y-Yttrium-DO3A-complex.
Furthermore, the effect of pH and ligand concentration on radiochemical yield was evaluated. Table 5 summarizes the results relating to the variation of pH between pH 2.0 and pH 8.9 while maintaining a constant ratio of DO3A-P^BnNH2 and Y of 3:1 and a reaction time of 60 min at 25° C. Accordingly, best labeling results are achieved at pH values of 4.9-8.0. Table 6 summarizes the results relating to the variation of the ligand concentration DO3A-P^BnNH2: Y between 1:1 up to 7:1 while maintaining a constant pH range (pH 5.2) and reaction time of 60 min at 25° C.

[3] = Relaxation measurements of gadolinium(III) complex solutions; conditions: gadolinium(III) complex prepared in solution from GdCl3.6H2O; approx. pH 7; at 10 MHz
Procedure: Solution was stirred for 1 h at room temperature and pH was set to approx. pH 7 by careful addition of solid KOH. Thus prepared solution as well as other solutions of different concentration which were prepared by a similar approach (all containing known amount of water and gadolinium(III)) were used for relaxation measurements. The solutions gave relaxivity 7.86 mmol^−1 s^−1 (at 10 MHz).
Solution of gadolinium(III) complex of compound 1 for relaxation measurements were prepared similarly to Example 51. The solutions gave relaxivity 7.54 mmol-1 s^−1 (at 10 MHz). Exchange half-life of coordinated water molecule 70 ns was determined (from temperature dependence of ^17O NMR parameters).

radiochemical yield [1]: 88% | pH values at which best labeling results are achieved ([2]; ^90Y, ratio of DO3A-P^BnNH2 and Y of 3:1, reaction time of 60 min at 25° C., pH varied 2.0 to 8.9): 4.9-8.0 | radiochemical yield ([2]; ratio of ligand:Y 1:1, [Y] = 1.2 · 10^−3 mol/l, pH = 5.2, reaction time 60 min): 94% | radiochemical yield ([2]; reaction time 15 min, [Y] = 1,2 · 10^−3 mol/l, ratio of ligand: Y = 1:1, pH = 5.5): 97% | relaxivity [3]: 7.86 mmol⁻¹ s⁻¹
Compound: Nc1ccc(CP(=O)(O)CN2CCN(CC(=O)O)CCN(CC(=O)O)CCN(CC(=O)O)CC2)cc1 [Compound 11]
